Counter-ions that a name gives are not always drawn.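 96-well plates; 48 h exposure; 5 concentrations. Endpoints by linear interpolation between flanking doses. Not reached: highest tested concentration assigned. GI50 marks 50% less growth.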 Activity calls are given as the source filed them. Cut-off read from the data, not from the text of the source: active = GI50 up to about 1.1 µM and inactive = higher.

What all share (assay): DTP human tumour cell line panel, 48 h
The test system of assay [1] is A549.
For assay [2], the system named is ACHN.
In assay [3] the test system is COLO 205.
Assay [4] relates to DU-145.
Assay [5] concerns EKVX.
Assay [6] deals with HCT-116.
For assay [7], the system named is HCT-15.
Assay [8] deals with HL-60.
Assay [9] concerns HT-29.
Assay [10] has as its system IGROV-1.
Assay [11] concerns MDA-MB-231.
Assay [12] deals with OVCAR-5.
The test system of assay [13] is SF-268.
In assay [14] the test system is SF-539.
The subject of assay [15] is SK-MEL-28.
Assay [16] relates to SK-MEL-2.
The subject of assay [17] is SK-MEL-5.
The test system of assay [18] is SN12C.
For assay [19], the system named is SNB-19.
Assay [20] relates to UACC-62.

Usually GI50 stands for the concentration at which growth is held to half of that of the control. Turning to `COc1ccc(N2C(=O)C3ON(C(C(N)=O)c4ccccc4)C(c4cc5ccccc5c5ccccc45)C3C2=O)cc1` (stereo not given), the GI50 was > 50 µM (inactive) in assay [1]; > 50 µM (inactive) in assay [2]; 19.6 µM (inactive) in assay [3]; > 50 µM (inactive) in assay [4]; 24.5 µM (inactive) in assay [5]; 18.2 µM (inactive) in assay [6]. In addition, the GI50 is 20.4 µM in [7]; 9.27 µM (inactive) in assay [8]; 18 µM (inactive) in assay [9]; 18.4 µM (inactive) in assay [10]; > 50 µM (inactive) in assay [11]; > 50 µM (inactive) in [12]. Also, the GI50 in [13] was 40.9 µM (inactive); in assay [14], 16.1 µM (inactive); in assay [15], > 50 µM (inactive); in [16], 18.3 µM (inactive); in assay [17], 19.7 µM (inactive); in assay [18] it was 14 µM (inactive). Besides, the results for the GI50 in [19] and in assay [20] were > 50 µM (inactive) and 10.6 µM (inactive), respectively.

Turning to `O=C1c2c(O)cccc2-c2nn(CCNCCO)c3ccc(NCCNCCO)c1c23` [LOSOXANTRONE HYDROCHLORIDE], the GI50 in assay [1] is < 0.01 µM (active); in [2], 0.0337 µM (active); in [3], 0.158 µM (active); in assay [4], < 0.01 µM (active); in assay [5], 0.867 µM (active); in assay [6] it was 0.043 µM (active). The concentration for 50% growth inhibition (GI50) in [7] is 2.36 µM; in assay [8] it was < 0.01 µM (active); in assay [9], 0.303 µM (active); in assay [10], 0.337 µM (active); in assay [11], 0.185 µM (active); in [12] it was 0.29 µM (active). Moreover, the GI50 is 0.0316 µM (active) in assay [13]; 0.0288 µM (active) in assay [14]; 0.447 µM (active) in assay [15]; 0.436 µM (active) in assay [16]; 0.0955 µM (active) in assay [17]; 0.0182 µM (active) in assay [18]. In addition, the GI50 in [19] was < 0.0167 µM (active); in assay [20] it was < 0.0451 µM (active).
